What was measured:
rat model of APN = assay: In vivo rat model of acute pyelonephritis (APN), bacteria introduced in the bladder; conditions: 7th day
Experimental: An in vivo experimental model of APN was used where bacteria are introduced in the bladder of rat (Gupta et al. (1995) J. Med. Microbiol. 43:33-36). Experiments were performed on outbred white female rats (180-200 g) fed ad libitum. Animal protocols were approved by the Institutional Review Boards. Rats were anesthetized with chloral hydrate (300 mg/kg, intraperitoneally(ip)). The animals were infected intraurethrally using a soft Intramedic non-radio-opaque polyethylene catheter (Clay Adams, USA). The inoculum (5 ml per kg, 1×10^8 CFU/ml of rat fecal bacterial composition) was injected slowly to avoid any leakage […]. Control animals were untreated. The therapeutic protocol of SkQR1 used to treat this pathology was as follows: […], with subsequent injections of the same amount of SkQR1 at 12, 24, 36 and 48 hrs; in total, each animal received 500 nmol SkQR1 per kg. […]
Kidney mitochondria were isolated by homogenization and differential centrifugation in a medium containing 250 mM sucrose, 20 mM HEPES-KOH, 1 mM EGTA and 0.1% BSA, pH7.4. Total mitochondrial protein was determined using a bicinchoninic acid protein assay kit (Sigma-Aldrich, USA). The mitochondria from cultured kidney cells were isolated by the same protocol.
The ROS-sensitive fluorescent probe 2,7-DCF-DA (Molecular Probes, USA) dissolved in DMEM/F12 without bicarbonate (final concentration 10 μM) was added to renal cells (500 μl per well of 24-well plate, 2 ml per dish) and incubated for 15 min at 37° C. followed by a wash with DMEM/F12 without bicarbonate. MDA was determined as in (Mihara and Uchiyama (1978) Anal. Biochem. 86:271-8). Fluorescent probe, DAF-2-DA (Calbiochem, San Diego, Calif., USA) was used for NO determination in living cells. The procedure was the same as for 2,7-DCF-DA. The nitrite/nitrate concentration (as products of NO oxidation) in culture media was determined using Nitrite/Nitrate Assay Kit (Sigma-Aldrich, USA). TNFα was determined using the kit Rat TNFα ELISA Ready-SET-Go (Ebioscience, USA).
The kidney was isolated immediately after sacrificing the animal and perfused with ice-cold PBS. It was then fixed in a 10% neutral buffered formalin solution, embedded in paraffin and used for histopathological examination. Five micrometer thick sections were cut, deparaffinized, hydrated, and stained with hematoxylin and eosin. The renal sections were examined in blinded fashion for inflammation and infiltration by leukocytes in the kidneys of all treated animals. A minimum of 10 fields for each kidney slide were examined and scored for pathologic severity.
The manifestation of inflammatory indicators (i.e., a number of infiltrated leukocytes in every layer and the presence of abscesses) under APN was evaluated using the following scale: 0, none; 1, 5-50 leukocytes in the view field; […]; 4, abscesses with pus-necrotic content. The distribution of inflammatory changes (i.e., comparative analysis of infiltration and abscesses) was evaluated by the following criteria: 0, none in any layer; 1, infiltration in the medullar layer; 2, infiltration reaching the cortex.
Kidney homogenates for MPO determination were centrifuged at 20000 g 15 min, the pellets were resuspended in 50 mM K-phosphate buffer containing 0.5% CTAB. Resulted samples were frozen and thawed three times and then centrifuged at 10600 g 10 min. Supernatants were analyzed for MPO activity in chromogenic reaction with o-phenylenediamine (OPD). 100 μl sample was mixed with 100 μl substrate buffer (25 mM Na-citrate, 50 mM Na-phosphate, 0.45 mg/ml OPD, 0.1% H2O2, pH 5.0) and was incubated 15 min at room temperature and then OD was detected at 492 nm.
Samples of kidney homogenates were loaded onto 15% Tris-glycine polyacrylamide gels (10-20 μg of total protein per lane). After electrophoresis, gels were blotted onto PVDF membranes (Amersham Pharmacia Biotech, UK). […]

Human neutrophils = assay: f-MLP-stimulated neutrophil MMP-9 release by zymography; assay type: cell-based; conditions: 0.2 nM, 2 nM, and 200 nM; 1.5 hr pre-incubation; 1 nM f-MLP 30 min; vs vehicle control
Experimental: Human neutrophils were isolated from anticoagulated blood of healthy donors. Neutrophils were pre-incubated with 0.2 nM, 2 nM, 20 nM, 200 nM, and 500 nM SkQ1 solution in RPMI-1640 medium supplemented with 10% fetal serum for 1.5 hr at 37° C. in 5% CO2. The cells were then stimulated with 1 nM N-formyl-methionine-leucine-phenylalanine (f-MLP) for 30 min. The supernatants from the cells were used to detect MMP-9 activity by zymography analysis (MMP-9 release was used to estimate tissue damage). The data from this assay was shown as means at least for 3 separate experiments.

[1] = system: Wistar rats with experimental hepatitis; assay: D-galactosamin-induced experimental hepatitis; assay type: in vivo, rat; conditions: 7 d before induction, control median 2
Experimental: Experimental hepatitis was induced in 8-10 weeks old Wistar rats weighing […] by intraperitoneal injection of 500 mg/kg D-galactosamin in 0.9% NaCl. SkQ1 was administered by gavage in aqueous solution at doses of 10 nmol/kg/day, 50 nmol/kg/day, 250 nmol/kg/day, and 1250 nmol/kg/day starting 7 d before induction of hepatitis and ending at the day of induction. The animals were sacrificed 24 hrs after the induction of hepatitis. Inflammation score was estimated for each animal on a 3-point scale by blind examination of hematoxylin-eosin stained liver sections.

With `CC1=C(C)C(=O)C(CCCCCCCCCC[P+](c2ccccc2)(c2ccccc2)c2ccccc2)=CC1=O` [SkQ1, 10-(6-plastoquinonyl)decyl-triphenylphosphonium] the “leukocyte concentration in blood” value (rat model of APN; SkQ1 100 nmol/kg ip on 3rd day) was “significantly reduced”, the “neutrophils concentration in blood” value (rat model of APN; SkQ1 100 nmol/kg ip on 3rd day after induction, vs animals not receiving SkQ1) was “twice as low” and the “MPO activity in renal tissue (inflammation of kidney tissue)” value (rat model of APN; SkQ1 ip on third day after induction) was “significant suppression”. The “neutrophil-MMP-9 activation induced by f-MLP” value (Human neutrophils) was “prevented”, the “inflammation score (3-point scale, liver sections)” value ([1]; 50 nmol/kg/day by gavage, p<0.01) was 1.5 and the “inflammation score (median, 3-point scale, liver sections)” value ([1]; 1250 nmol/kg/day by gavage, p<0.001) was 1.
